# How the values were obtained:
# [1] = SAXS form factor fits (core-shell cylinder, generalized Gaussian coil); assay type: physicochemical; further: values in Å
# Description: SAXS experiments were performed on beamline B21 [28] at Diamond (Didcot, UK). The sample solution was loaded into the 96‐well plate of an EMBL BioSAXS robot and then injected via an automated sample exchanger into a quartz capillary (1.8‐mm internal diameter) in the X‐ray beam. The quartz capillary was enclosed in a vacuum chamber, to avoid parasitic scattering. After the sample was injected into the capillary and reached the X‐ray beam, the flow was stopped during the SAXS data acquisition. Beamline B21 was operated with a fixed camera length (3.9 m) and fixed energy (12.4 keV). The images were captured using a PILATUS 2M detector. Data processing was performed using dedicated beamline software ScÅtter.
# Cryo‐TEM was used to probe potential aggregation in solution above the CAC (3 wt% aqueous solution). […] The presence of such structures was also confirmed by SAXS and SANS data (Figure 3), which reveal form factor features that can be fitted using a core‐shell cylinder form factor, consistent with extended fibril structures. The cylinder radius is 25 Å, which is approximately equal to the estimated length of the molecule considering the lipid chain plus a pentapeptide in a β‐sheet conformation. […] For the SAXS data, it was necessary to include a contribution in the fits from unaggregated peptide, which gives rise to scattering at high q, described using a generalized Gaussian coil form factor (generalized refers to allowing the Flory exponent for the coil to vary from the value ν = 0.5 for an unperturbed coil). SANS data for 3 wt% solutions of lipoyl‐KTTKS in D2O can be fitted to a core‐shell cylinder form factor, consistent with SAXS, with fit parameters listed in Table S1. It was not necessary to allow for unaggregated monomer in fitting the SANS data, which may be because of the higher background and/or altered scattering contrast compared with SAXS. The cylinder radius and shell thickness obtained from the fits to the SANS data are in excellent agreement with the parameters obtained from the SAXS fit.
# The ring‐opening of the lipoyl moiety can be achieved under reductive conditions. We examined the effect of chemical reduction on the self‐assembled structures of lipoyl‐KTTKS using TCEP [tris(2‐carboxyethyl)phosphine] as reductant. […] The SAXS data in Figure 3a show a considerable reduction in scattering intensity after addition of TCEP and the SANS profile in Figure 3b is barely above background after addition of TCEP. The SAXS data can be described using a form factor for monomer scattering with a power‐law intensity function at low q to account for a small fraction of irregular aggregates. The disruption of the fibrils upon TCEP addition was also confirmed by cryo‐TEM (images shown in Figure S1) because no aggregate structures were observed after addition of TCEP. Circular dichroism (CD) spectra shown in Figure 4 are characterized by a negative minimum in the CD spectrum at 196 nm along with the absence of defined features at higher wavelength, characteristic of a primarily disordered conformation. However, taking the difference between the CD spectra for lipoyl‐KTTKS without and with TCEP produces a spectrum (green spectrum in Figure 5) with a minimum near 215 nm, characteristic of β‐sheet structure. This is consistent with the observation that lipoyl‐KTTKS forms fibril‐like structures above a CAC detected by ThT binding to β‐sheet structure and as observed by cryo‐TEM, SAXS and SANS.
# Table S1. SANS and SAXS data fitted parameters. Data fitted using SASfit,^[1-2] using a long cylindrical shell form factor model, with allowance for monomers via a Generalized Gaussian coil factor for SAXS data. […]
# [2] = SANS form factor fits (core-shell cylinder); assay type: physicochemical; conditions: 3 wt% in D2O, 25°C, long cylindrical shell form factor; further: values in Å
# Description: Measurements were performed using the LOQ instrument at ISIS Neutron and Muon Source, Oxfordshire, UK. LOQ operates in time‐of‐flight mode, with a wavelength range from 2.7 to 10.5 Å. Two detectors recorded simultaneously small and wide scattering merged in a typical range of wavenumbers q = 0.006 Å^−1 to 1.2 Å^−1. The main detector was fixed at 4 m from the sample, and the size of the beam was 8 mm diameter at the sample position. The samples were placed in quartz cuvettes and arranged on a multislot sample changer with temperature controlled by a thermal bath at 25°C. The background was subtracted and the scattering intensity normalized to the absolute scale cross calibrating with a polystyrene standard. Data reduction was performed using Mantid.
# Cryo‐TEM was used to probe potential aggregation in solution above the CAC (3 wt% aqueous solution). […] The presence of such structures was also confirmed by SAXS and SANS data (Figure 3), which reveal form factor features that can be fitted using a core‐shell cylinder form factor, consistent with extended fibril structures. The cylinder radius is 25 Å, which is approximately equal to the estimated length of the molecule considering the lipid chain plus a pentapeptide in a β‐sheet conformation. […]
# [3] = UV exposure / photodegradation, UV-vis absorbance at 333 nm; assay type: physicochemical; conditions: UV lamp 365 nm for 1 h, 0.1 wt% solution, read 24 h after irradiation
# Description: To investigate the effect of UV exposure on lipoyl‐KTTKS the peptide powder was irradiated using a 4W UVGL‐25 lamp (Analytik Jena, Germany) at a wavelength of 365 nm for 1 h. The absorbance was tracked at 333 nm before, just after exposure and 24 h after exposure using a nanodrop spectrometer (Thermo‐Fisher Scientific). The full spectra were also collected using a Varian Cary Bio 300 UV‐vis (Cary).
# Lipoic acid is susceptible to photolysis upon exposure to UV light. Photodegradation of lipoyl‐KTTKS was studied via UV‐vis, FTIR and CD spectroscopy and degradation products were analysed by electrospray ionisation‐mass spectroscopy (ESI‐MS). Photolysis was induced by exposure to UV for 1 h using a UV lamp with 365‐nm radiation. Lipoic acid presents a characteristic weak band at 333 nm that is related to the hindered dithiolane ring, that can be broken by UV irradiation. The absorbance of lipoyl‐KTTKS (0.1 wt% solution) before irradiation, just after and 24 h after irradiation to evaluate the recovery of the dithiolane ring is shown in Figure 5. […] The UV exposure disrupts the dithiolane ring, as reflected also in the FTIR spectrum (Figure S2), with the suppression of bands ν(S‐S) at 519 and 438 cm^−1 and ν(C‐S) at 721 cm^−1 [48, 49].
# [4] = tested on: procollagen type I carboxy-terminal peptide (PIP); conditions: cited from earlier work
# From the text: Here, we investigate the structural properties, biocompatibility and collagen‐stimulating activity of a novel peptide amphiphile comprising a conjugate of lipoic acid to pentapeptide KTTKS, termed lipoyl‐KTTKS (Scheme 1). […] This can be contrasted with previous reported data f ...
# [5] = 3 wt%, long cylindrical shell form factor
# [6] = 3 wt%, long cylindrical shell form factor, listed as lipoyl-KTTKS
substance,measurement,setting,value
lipoyl‐KTTKS [peptide amphiphile comprising a conjugate of lipoic acid to pentapeptide KTTKS],Rg radius of gyration (monomer),"[1]; 3 wt% with 2.6 wt% TCEP, generalized Gaussian coil form factor",6.3 Å
same,Rg radius of gyration (unaggregated peptide),"[1]; 3 wt%, generalized Gaussian coil form factor",22.0 Å
same,L length,[1]; [5],987 Å
same,Ro outer radius (Gaussian polydispersity ΔR),[1]; [5],25 Å
same,t shell thickness,[1]; [5],10 Å
same,Ro outer radius (Gaussian polydispersity ΔR),[1]; [6],25.0 ± 25.0 Å
same,t shell thickness,[1]; [6],10.0 Å
same,L length,[2],800 Å
same,t shell thickness,[2],9.10 Å
same,Recovery of absorbance at 333 nm (dithiolane ring) after UV exposure,[3],incomplete recovery
same,Increase in collagen synthesis compared with negative control,"[4]; 0.038 wt% (0.5 mM) sample, enzyme immunoassay of PIP, single data point",65%
same,Collagen synthesis relative to control and KTTKS,[4],superior to control and KTTKS itself

# — publication PMC11794677, “Self‐Assembly of a Conjugate of Lipoic Acid With a Collagen‐Stimulating Pentapeptide Showing Cytocompatibility and Wound Healing Properties, and Chemical and Photolytic Disassembly” (Journal of Peptide Science, 2025)
